From US6737383B1, “Herbicidal oxadiazolidines” (priority 1999, dated 2004)

How the values were obtained:
bamyardgrass = test: Test B flood test barnyardgrass; type: in vivo, Echinochloa crus-galli; details: for Plant response rating, Barnyardgrass (0 to 10 scale, 0 is no effect, 10 is complete control): Rate 62 g/ha, Pre-emergence; for Plant response rating, Barnyardgrass (0 to 10 scale, 0 is no effect, 10 is complete control) / Barnyardgrass plant response rating (0 to 10 scale, 0 is no effect, 10 is complete control): flood test species, visual evaluation after twelve to sixteen days; for Barnyardgrass plant response rating (0 to 10 scale, 0 is no effect, 10 is complete control): Rate 125 g/ha, under heading Pre-emergence
Procedure, shortened: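 Plants were grown to the 2-leaf stage before treatment with test chemical, then held in a greenhouse for twelve to sixteen days. Injury was visually rated against untreated controls on a 0–10 scale, where 0 is no effect and 10 is complete control.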

cocklebur = test: Test B pre/postemergence cocklebur; type: in vivo, Xanthium strumarium
Procedure, shortened: (§1)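 Herbicidal effect was estimated by eye on a ten-point control scale after plants spent twelve to sixteen days in a greenhouse following soil or foliar treatment. Foliar sprays targeted plants at one to four leaves; all doses were formulated in a non-phytotoxic solvent with surfactant.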

pigweed = test: Test B pre/postemergence pigweed; type: in vivo, Amaranthus retroflexus
Procedure, shortened: as §1

sugar beet = test: Test B pre/postemergence sugar beet; type: in vivo, Beta vulgaris
Procedure, shortened: as §1

[1] = Rate 250 g/ha, Pre-emergence (flood test species), scale 0 to 10, 0 is no effect, 10 is complete control
[2] = Rate 500 g/ha, Pre-emergence section of Table B, 0 to 10 scale (0 no effect, 10 complete control)
[3] = Postemergence, Rate 62 g/ha, scale of 0 to 10, 0 is no effect, 10 is complete control
[4] = Postemergence, Rate 125 g/ha, scale 0 to 10, 0 is no effect, 10 is complete control
[5] = Postemergence, Rate 500 g/ha, scale 0 to 10, 0 is no effect, 10 is complete control
[6] = Preemergence, Rate 62 g/ha, scale of 0 to 10 where 0 is no effect and 10 is complete control
[7] = Preemergence, Rate 125 g/ha, scale 0 to 10, 0 is no effect, 10 is complete control
[8] = Preemergence, Rate 500 g/ha, scale of 0 to 10 where 0 is no effect and 10 is complete control
[9] = Rate 250 g/ha, Postemergence, scale of 0 to 10 where 0 is no effect and 10 is complete control
[10] = Preemergence, Rate 62 g/ha, scale 0 to 10 (0 no effect, 10 complete control)
[11] = Postemergence, Rate 500 g/ha, scale of 0 to 10 where 0 is no effect and 10 is complete control
[12] = Postemergence, Rate 62 g/ha, scale 0 to 10, 0 is no effect, 10 is complete control
[13] = Postemergence, Rate 125 g/ha, scale of 0 to 10 where 0 is no effect and 10 is complete control
[14] = Postemergence, Rate 250 g/ha, scale of 0 to 10, 0 is no effect, 10 is complete control
[15] = Preemergence, Rate 125 g/ha, scale of 0 to 10 where 0 is no effect and 10 is complete control
[16] = Preemergence, Rate 250 g/ha, scale 0 to 10 (0 no effect, 10 complete control)

CC(C)N(C(=O)n1oc(=O)n(CCC2OCCCO2)c1=O)c1ccc(Cl)cc1 [Compound 532]
Plant response rating, Barnyardgrass (0 to 10 scale, 0 is no effect, 10 is complete control) (bamyardgrass): 0
Barnyardgrass plant response rating (0 to 10 scale, 0 is no effect, 10 is complete control) (bamyardgrass): 0
Barnyardgrass plant response rating (bamyardgrass; [1]): 9
Barnyardgrass plant response rating (bamyardgrass; [2]): 9
Cocklebur plant response rating (cocklebur; [3]): 0
Cocklebur plant response rating (cocklebur; [4]): 0
Plant response rating, Cocklebur (cocklebur; [5]): 4
Plant response rating, Cocklebur (cocklebur; [6]): 0
Cocklebur plant response rating (cocklebur; [7]): 0
Cocklebur plant response rating (0 to 10 scale) (cocklebur; Preemergence, Rate 250 g/ha): 0
Cocklebur plant response rating (cocklebur; [8]): 0
Plant response rating, Cocklebur (cocklebur; [9]): 2
Redroot pigweed plant response rating (pigweed; [3]): 0
Redroot pigweed plant response rating (pigweed; [4]): 0
Plant response rating, Redroot pigweed (pigweed; [5]): 2
Plant response rating, Redroot pigweed (pigweed; [6]): 0
Redroot pigweed plant response rating (pigweed; [7]): 0
Redroot pigweed plant response rating (0 to 10 scale) (pigweed; Preemergence, Rate 250 g/ha): 0
Redroot pigweed plant response rating (pigweed; [8]): 0
Plant response rating, Redroot pigweed (pigweed; [9]): 0
Sugarbeets plant response rating (sugar beet; [3]): 0
Sugarbeets plant response rating (sugar beet; [4]): 0
Plant response rating, Sugarbeets (sugar beet; [5]): 0
Plant response rating, Sugarbeets (sugar beet; [6]): 0
Sugarbeets plant response rating (sugar beet; [7]): 2
Sugarbeets plant response rating (0 to 10 scale) (sugar beet; Preemergence, Rate 250 g/ha): 2
Sugarbeets plant response rating (sugar beet; [8]): 3
Plant response rating, Sugarbeets (sugar beet; [9]): 0

CC(C)N(C(=O)n1oc(=O)n(CC2CCC2)c1=O)c1ccc(Cl)cc1 [Compound 550]
Plant response rating, Barnyardgrass (0 to 10 scale, 0 is no effect, 10 is complete control) (bamyardgrass): 0
Barnyardgrass plant response rating (0 to 10 scale, 0 is no effect, 10 is complete control) (bamyardgrass): 0
Barnyardgrass plant response rating (bamyardgrass; [1]): 0
Barnyardgrass plant response rating (bamyardgrass; [2]): 0
Cocklebur plant response rating (cocklebur; [3]): 0
Cocklebur plant response rating (cocklebur; [4]): 0
Plant response rating, Cocklebur (cocklebur; [5]): 2
Cocklebur plant response rating (cocklebur; [10]): 0
Cocklebur plant response rating (cocklebur; [7]): 0
Cocklebur plant response rating (0 to 10 scale) (cocklebur; Preemergence, Rate 250 g/ha): 0
Cocklebur plant response rating (cocklebur; [8]): 0
Plant response rating, Cocklebur (cocklebur; [9]): 1
Redroot pigweed plant response rating (pigweed; [3]): 0
Redroot pigweed plant response rating (pigweed; [4]): 0
Plant response rating, Redroot pigweed (pigweed; [5]): 0
Redroot pigweed plant response rating (pigweed; [10]): 7
Redroot pigweed plant response rating (pigweed; [7]): 9
Redroot pigweed plant response rating (0 to 10 scale) (pigweed; Preemergence, Rate 250 g/ha): 9
Redroot pigweed plant response rating (pigweed; [8]): 10
Plant response rating, Redroot pigweed (pigweed; [9]): 0
Sugarbeets plant response rating (sugar beet; [3]): 0
Sugarbeets plant response rating (sugar beet; [4]): 0
Plant response rating, Sugarbeets (sugar beet; [5]): 5
Sugarbeets plant response rating (sugar beet; [10]): 0
Sugarbeets plant response rating (sugar beet; [7]): 0
Sugarbeets plant response rating (0 to 10 scale) (sugar beet; Preemergence, Rate 250 g/ha): 5
Sugarbeets plant response rating (sugar beet; [8]): 8
Plant response rating, Sugarbeets (sugar beet; [9]): 2

CC(C)N(C(=O)n1oc(=O)n(CCc2ccccc2)c1=O)c1ccccc1 [Compound 567]
Plant response rating, Barnyardgrass (0 to 10 scale, 0 is no effect, 10 is complete control) (bamyardgrass): 0
Barnyardgrass plant response rating (0 to 10 scale, 0 is no effect, 10 is complete control) (bamyardgrass): 0
Barnyardgrass plant response rating (bamyardgrass; [1]): 0
Barnyardgrass plant response rating (bamyardgrass; [2]): 0
Cocklebur plant response rating (cocklebur; [3]): 0
Cocklebur plant response rating (cocklebur; [4]): 0
Plant response rating, Cocklebur (cocklebur; [11]): 2
Cocklebur plant response rating (cocklebur; [10]): 0
Cocklebur plant response rating (cocklebur; [7]): 0
Cocklebur plant response rating (0 to 10 scale) (cocklebur; Preemergence, Rate 250 g/ha): 0
Cocklebur plant response rating (cocklebur; [8]): 0
Plant response rating, Cocklebur (cocklebur; [9]): 0
Plant response rating, Redroot pigweed (pigweed; [11]): 0
Redroot pigweed plant response rating (pigweed; [10]): 0
Redroot pigweed plant response rating (pigweed; [7]): 0
Redroot pigweed plant response rating (0 to 10 scale) (pigweed; Preemergence, Rate 250 g/ha): 8
Redroot pigweed plant response rating (pigweed; [8]): 9
Plant response rating, Redroot pigweed (pigweed; [9]): 0
Plant response rating, Sugarbeets (sugar beet; [11]): 0
Sugarbeets plant response rating (sugar beet; [10]): 0
Sugarbeets plant response rating (sugar beet; [7]): 0
Sugarbeets plant response rating (0 to 10 scale) (sugar beet; Preemergence, Rate 250 g/ha): 0
Sugarbeets plant response rating (sugar beet; [8]): 2
Plant response rating, Sugarbeets (sugar beet; [9]): 0

C#CC(C)n1c(=O)on(C(=O)N(c2ccccc2)C(C)C)c1=O (stereo not shown) [Compound 609]
Plant response rating, Barnyardgrass (0 to 10 scale, 0 is no effect, 10 is complete control) (bamyardgrass): 0
Barnyardgrass plant response rating (0 to 10 scale, 0 is no effect, 10 is complete control) (bamyardgrass): 0
Barnyardgrass plant response rating (bamyardgrass; [1]): 0
Barnyardgrass plant response rating (bamyardgrass; [2]): 0
Plant response rating, Cocklebur (cocklebur; [12]): 0
Plant response rating, Cocklebur (cocklebur; [13]): 1
Cocklebur plant response rating (cocklebur; [14]): 2
Plant response rating, Cocklebur (cocklebur; [11]): 3
Cocklebur plant response rating (cocklebur; [10]): 0
Cocklebur plant response rating (cocklebur; [15]): 0
Cocklebur plant response rating (0 to 10 scale) (cocklebur; Preemergence, Rate 250 g/ha): 0
Plant response rating, Cocklebur (cocklebur; [8]): 3
Plant response rating, Redroot pigweed (pigweed; [12]): 0
Plant response rating, Redroot pigweed (pigweed; [13]): 0
Redroot pigweed plant response rating (pigweed; [14]): 2
Plant response rating, Redroot pigweed (pigweed; [11]): 9
Redroot pigweed plant response rating (pigweed; [10]): 8
Plant response rating, Redroot pigweed (pigweed; [8]): 10
Plant response rating, Sugarbeets (sugar beet; [12]): 0
Plant response rating, Sugarbeets (sugar beet; [13]): 0
Sugarbeets plant response rating (sugar beet; [14]): 0
Plant response rating, Sugarbeets (sugar beet; [11]): 1
Sugarbeets plant response rating (sugar beet; [10]): 0
Sugarbeets plant response rating (sugar beet; [15]): 3
Plant response rating, Sugarbeets (sugar beet; [8]): 8

CC(C)N(C(=O)n1oc(=O)n(CCC(=O)N(C)C)c1=O)c1ccc(F)cc1 [Compound 638]
Plant response rating, Barnyardgrass (0 to 10 scale, 0 is no effect, 10 is complete control) (bamyardgrass): 0
Barnyardgrass plant response rating (0 to 10 scale, 0 is no effect, 10 is complete control) (bamyardgrass): 0
Barnyardgrass plant response rating (bamyardgrass; [1]): 0
Barnyardgrass plant response rating (bamyardgrass; [2]): 0
Plant response rating, Cocklebur (cocklebur; [12]): 0
Plant response rating, Cocklebur (cocklebur; [13]): 0
Cocklebur plant response rating (cocklebur; [14]): 2
Plant response rating, Cocklebur (cocklebur; [11]): 4
Cocklebur plant response rating (cocklebur; [6]): 0
Cocklebur plant response rating (cocklebur; [15]): 0
Plant response rating, Cocklebur (cocklebur; [16]): 4
Plant response rating, Cocklebur (cocklebur; [8]): 9
Plant response rating, Redroot pigweed (pigweed; [12]): 0
Plant response rating, Redroot pigweed (pigweed; [13]): 0
Redroot pigweed plant response rating (pigweed; [14]): 0
Redroot pigweed plant response rating (pigweed; [6]): 7
Redroot pigweed plant response rating (pigweed; [15]): 10
Plant response rating, Redroot pigweed (pigweed; [16]): 10
Plant response rating, Redroot pigweed (pigweed; [8]): 10
Plant response rating, Sugarbeets (sugar beet; [12]): 0
Plant response rating, Sugarbeets (sugar beet; [13]): 0
Sugarbeets plant response rating (sugar beet; [14]): 0
Sugarbeets plant response rating (sugar beet; [6]): 0
Sugarbeets plant response rating (sugar beet; [15]): 6
Plant response rating, Sugarbeets (sugar beet; [16]): 6
Plant response rating, Sugarbeets (sugar beet; [8]): 10

CC(C)N(C(=O)n1oc(=O)n(CC(=O)C2CCC2)c1=O)c1ccc(F)cc1F [Compound 642]
Plant response rating, Barnyardgrass (0 to 10 scale, 0 is no effect, 10 is complete control) (bamyardgrass): 0
Barnyardgrass plant response rating (0 to 10 scale, 0 is no effect, 10 is complete control) (bamyardgrass): 0
Barnyardgrass plant response rating (bamyardgrass; [1]): 0
Barnyardgrass plant response rating (bamyardgrass; [2]): 0
Plant response rating, Cocklebur (cocklebur; [12]): 0
Cocklebur plant response rating (cocklebur; [13]): 0
Cocklebur plant response rating (cocklebur; [14]): 0
Plant response rating, Cocklebur (cocklebur; [11]): 0
Cocklebur plant response rating (cocklebur; [6]): 0
Cocklebur plant response rating (cocklebur; [15]): 0
Plant response rating, Cocklebur (cocklebur; [16]): 0
Plant response rating, Cocklebur (cocklebur; [8]): 0
Plant response rating, Redroot pigweed (pigweed; [12]): 0
Redroot pigweed plant response rating (pigweed; [13]): 0
Redroot pigweed plant response rating (pigweed; [14]): 0
Redroot pigweed plant response rating (pigweed; [6]): 0
Redroot pigweed plant response rating (pigweed; [15]): 0
Plant response rating, Redroot pigweed (pigweed; [16]): 2
Plant response rating, Redroot pigweed (pigweed; [8]): 8
Plant response rating, Sugarbeets (sugar beet; [12]): 0
Sugarbeets plant response rating (sugar beet; [13]): 0
Sugarbeets plant response rating (sugar beet; [14]): 0
Sugarbeets plant response rating (sugar beet; [6]): 0
Sugarbeets plant response rating (sugar beet; [15]): 0
Plant response rating, Sugarbeets (sugar beet; [16]): 0
Plant response rating, Sugarbeets (sugar beet; [8]): 4
